Results published in patent US20030225047A1, “Sulfatase inhibiting progestogen-only contraceptive regimens” (priority 2002, published 2003).

Legend:
[1] = system: conversion of E1S to E2 (sulfatase activity) in T-47D breast cancer cell line; experiment: Conversion of [3H]-E1S to E2 in T-47D human mammary cancer cells; type: cell-based; settings: for inhibition at 0.005 µM / inhibition at 0.5 µM / inhibition at 50 µM / IC50: Homo sapiens, T47D; for inhibition at 0.005 µM / inhibition at 0.5 µM / inhibition at 50 µM: mean ± SEM; for IC50: non-linear regression analysis; for E2 formed: 5×10^−9 mol/l [3H]-E1S, control 1805 ± 152
Experimental: (§1) [6,7-^3H(N)]-estrone sulfate (^3H-E1S), ammonium salt (sp. act. 53 Ci/mmol) and [4-^14C]-estradiol (^14C-E2) (sp. act. 57 mCi/mmol) were purchased from New England Nuclear Division (DuPont de Nemours, Les Ulls, France). The purity of the radioisotopes was assessed by thin-layer chromatography (TLC) in the appropriate system before use. E1S, ammonium salt, unlabeled E1and E2, (analytical grade) were obtained from Sigma-Aldrich Chimle, (St Quentin Fallavier, France). 17-deacetylnorgestimate (NGMN; 13-ethyl-17-hydroxy-18,19-dinor-17α-pregn-4-en-20-yn-3-one oxime) was a gift from R. W. Johnson Pharmaceutical Research Institute, Medicinal Chemistry Department, (Raritan, N.J., USA); medroxyprogesterone acetate (MPA, 17α-acetoxy-6α-methylprogesterone) was obtained from Sigma-Aldrich Chimie. All other chemicals were of the highest grade commercially available.
(§2) The hormone-dependent MCF-7 and T-47D human mammary cancer cell lines were grown in Eagle's Minimal Essential Medium (MEM) buffered with 10 mmol/l HEPES (pH 7.6), supplemented with 2 mmol/l L-glutamine, 100 U/ml penicillin-streptomycin and 5% fetal calf serum (FCS) (A.T.G.C., Marne-la-Vallée, France) for T-47D, or 10% FCS for MCF-7 cells, and incubated at 37° C. n a humidified atmosphere of 5% CO2. Media were changed twice a week. The cells were passed every 10-12 days and replated in 75 cm^2 flasks (A.T.G.C.) at 3×10^6 cells/flask. Four days before the experiments, the cells were transferred to MEM containing 5% steroid-depleted treated FCS. The FCS had been treated overnight at 4° C. with dextran-coated charcoal (DCC)(0.1-1% w/v, DCC-FCS). The MCF-7 and T-47D cell lines used herein were deposited in accordance with the Budapest Treaty under the references MCF7_JJPRD and T47D_JJPRD on May 17, 2002 at The Belgian Co-ordinated Collections of Micro-organisms (BCCM), Laboratorium voor Moleculaire Biologie, Universiteit Gent, K. L. Ledeganckstraat 35, B-9000 Gent, Belgium and are publicly available under accession numbers LMBP 5862CB and LMBP 5863CB, respectively.
(§3) Preconfluent cells were incubated for 4 hours at 37° C. in MEM-DCC-FCS with the addition of 5×10^−9 mol/l of [^3H]-E1S, alone (control cells) or in combination with the different compounds: NGMN or MPA, dissolved in ethanol (final concentration <0.2%), at a range of concentrations of 5×10^−5-5×10^−9 mol/l. Control cells received ethanol vehicle only. After 24 hours, the medium was removed, the cells washed twice with ice-cold Hank's Buffered Saline Solution (HBSS, calcium-magnesium-free)(A.T.G.C.) and harvested by scraping. After centrifugation, the pallet was treated with 80% ethanol and the radioactivity extracted for at least 24 h at −20° C. The cellular radioactivity uptake was determined in the ethanolic supernatant and the DNA content in the remaining pellet was evaluated according to Burton Biochem Journal 62:315-323, 1956. [^14C]-E2 (5,000 dpm) was added to monitor analytical losses and unlabeled E1and E2 (50 μg) were used as carriers and reference indicators. In the total ethanolic extracts, E2 was isolated by thin layer chromatography (TLC) on silica gel 60F254 (Merck, Darmstadt, Germany), developed with chloroformi-ethylacetate (4:1, v/v) system. After visualization of the estrogens under U.V. at 254 nm, the appropriate areas were cut off into small pieces, placed in liquid scintillation vials with ethanol (0.5 ml) and allowed to extract for […]. Three ml of Opti-fluor (Packard, Rungis, France) were added and the vials were analyzed for ^3H and ^14C contents with quench correction by external standarization. The quantitative evaluation of E2 was calculated as a percentage of the total radioactivity associated with the cells and then expressed as fmol of E2 formed/mg DNA from E1S.
(§4) Data are expressed as the mean±standard error of the mean (SEM) values. Student's t-test was used to assess the significance of the differences between means; p values ≦0.05_were considered significant. […]

[2] = system: conversion of E1S to E2 (sulfatase activity) in MCF-7 breast cancer cell line; experiment: Conversion of [3H]-E1S to E2 in MCF-7 human mammary cancer cells; type: cell-based; settings: for inhibition at 0.005 µM / inhibition at 0.5 µM / inhibition at 50 µM / IC50: Homo sapiens; for inhibition at 0.005 µM: MCF7, compound conc 0.005 × 10^−6 mol/l; for inhibition at 0.005 µM / inhibition at 0.5 µM / inhibition at 50 µM: mean ± SEM; for inhibition at 0.5 µM: MCF7, compound conc 0.5 × 10^−6 mol/l; for inhibition at 50 µM: MCF7, compound conc 50 × 10^−6 mol/l; for IC50: MCF7, non-linear regression analysis; for E2 formed: 5×10^−9 mol/l [3H]-E1S, control 2185 ± 101
Experimental: as §1, §2, §3, §4

[3] = humans; major metabolite; cited from earlier work
[4] = compound conc 0.005 × 10^−6 mol/l
[5] = compound conc 0.5 × 10^−6 mol/l
[6] = compound conc 0.005 × 10^−6 mol/l, mean of 3 experiments

Structure (SMILES)	inhibition at 0.005 µM [1, 4] [%]	inhibition at 0.5 µM [1, 5] [%]	inhibition at 50 µM ([1]; compound conc 50 × 10^−6 mol/l) [%]	IC50 [1] [nM]	E2 formed [1, 6] [fmol/mg DNA]	E2 formed [1, 5] [fmol/mg DNA]	E2 formed ([1]; compound conc 50 × 10^−6 mol/l) [fmol/mg DNA]	inhibition at 0.005 µM [2] [%]	inhibition at 0.5 µM [2] [%]	inhibition at 50 µM [2] [%]	IC50 [2] [nM]	E2 formed [2, 4] [fmol/mg DNA]	E2 formed [2, 5] [fmol/mg DNA]	E2 formed ([2]; compound conc 50 × 10^−6 mol/l) [fmol/mg DNA]	fraction of norgestimate converted to norelgestromin in vivo [3] [%]
CC(=O)O[C@]1(C(C)=O)CC[C@H]2[C@@H]3C[C@H](C)C4=CC(=O)CC[C@]4(C)[C@H]3CC[C@@]21C [MPA, 17α-acetoxy-6α-methylprogesterone]	31	47	61	2150	1245	957	704	6	20	63	26100	2054	1748	808	
C#C[C@]1(OC(C)=O)CC[C@H]2[C@@H]3CCC4=CC(=NO)CC[C@@H]4[C@H]3CC[C@@]21CC (mixture of isomers) [norgestimate]															≥ 80
C#C[C@]1(O)CC[C@H]2[C@@H]3CCC4=C/C(=N/O)CC[C@@H]4[C@H]3CC[C@@]21CC [NGMN, 13-ethyl-17-hydroxy-18,19-dinor-17α-pregn-4-en-20-yn-3-one oxime]	43	74	97	12.7	1029	469	54	25	57	96	178	1639	940	87	
